Biological target: T1, SMYD3 (Homo sapiens, UniProt Q9H7B4)
T1 sequence (Q9H7B4 1-428): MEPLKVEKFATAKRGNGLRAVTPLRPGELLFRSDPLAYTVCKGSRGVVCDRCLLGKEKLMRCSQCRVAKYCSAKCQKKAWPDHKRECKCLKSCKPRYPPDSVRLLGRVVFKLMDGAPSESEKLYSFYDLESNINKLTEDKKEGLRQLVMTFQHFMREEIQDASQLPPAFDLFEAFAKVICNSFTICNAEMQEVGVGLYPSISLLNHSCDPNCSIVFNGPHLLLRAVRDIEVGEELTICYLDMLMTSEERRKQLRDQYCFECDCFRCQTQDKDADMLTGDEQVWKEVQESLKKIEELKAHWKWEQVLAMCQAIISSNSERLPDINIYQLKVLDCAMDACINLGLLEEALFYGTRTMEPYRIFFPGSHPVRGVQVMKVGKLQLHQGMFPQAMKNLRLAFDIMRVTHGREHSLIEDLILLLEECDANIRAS
Experiment: SMYD3 biochemical assay (MTase-Glo, MAP3K2 peptide substrate)
Conditions: Table 3; MTase assay, MAP3K2 peptide substrate; read-out: IC50
Procedure, shortened: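 Luminescent readout of SAH production (coupled SAH→ATP conversion, MTase-Glo) after SMYD3 reacted 30 min at room temperature with 1.0 µM SAM and 10 µM MAP3K2 peptide, both final. Non-linear regression gave IC50 values.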

Row | Compound | IC50
1 | CCCOC(=O)N1CCN(C(=O)c2ccc3c(Cl)cc(-c4cccc(CN(C)C)c4)nc3c2)CC1 [B112, Propyl 4-(4-chloro-2-(3-((dimethylamino)methyl)phenyl)quinoline-7-carbonyl)piperazine-1-carboxylate] | 140 nM
2 | CCCOC(=O)N1CCN(C(=O)c2ccc3c(Cl)ccnc3c2)CC1 [B051, Propyl 4-(4-chloroquinoline-7-carbonyl)piperazine-1-carboxylate] | 3200 nM
3 | CCCOC(=O)N1CCN(C(=O)c2ccc3c(Cl)c4c(nc3c2)CCCC4)[C@H](C)C1 [A011, Propyl (R)-4-(9-chloro-5,6,7,8-tetrahydroacridine-3-carbonyl)-3-methylpiperazine-1-carboxylate] | 300 nM
4 | CCCOC(=O)N1CCN(C(=O)c2ccc3c(Cl)cc(-c4ccccc4)nc3c2)[C@@H](C)C1 [B014, Propyl (S)-4-(4-chloro-2-phenylquinoline-7-carbonyl)-3-methylpiperazine-1-carboxylate] | 170 nM
5 | C[C@@H]1CN(C(=O)c2ccc3c(Cl)cc(-c4ccn(C)c4)nc3c2)CCN1C(=O)c1cn(C2CC2)nn1 [D004, (R)-(4-Chloro-2-(1-methyl-1H-pyrrol-3-yl)quinolin-7-yl)(4-(1-cyclopropyl-1H-1,2,3-triazole-4-carbonyl)-3-methylpiperazin-1-yl)methanone] | 13 nM
6 | CCCOC(=O)N1CCN(C(=O)c2ccc3c(Cl)cc(-c4ccccc4)nc3c2)CC1 [B002, Propyl 4-(4-chloro-2-phenylquinoline-7-carbonyl)piperazine-1-carboxylate] | 410 nM
7 | CCCOC(=O)N1CCN(C(=O)c2ccc3c(Cl)c4c(nc3c2)CC(CC#N)CC4)CC1 (stereo not shown) [A065, Propyl 4-(9-chloro-6-(cyanomethyl)-5,6,7,8-tetrahydroacridine-3-carbonyl)piperazine-1-carboxylate] | 190 nM
8 | CCCOC(=O)N1CCN(C(=O)c2ccc3c(Cl)c(C)c(-c4ccccc4C)nc3c2)CC1 [B027, Propyl 4-(4-chloro-3-methyl-2-(o-tolyl)quinoline-7-carbonyl)piperazine-1-carboxylate] | 1200 nM
9 | CCCOC(=O)N1CCN(C(=O)c2ccc3c(Cl)cc(-c4ccc5cnn(C)c5c4)nc3c2)CC1 [B195, Propyl 4-(4-chloro-2-(1-methyl-1H-indazol-6-yl)quinoline-7-carbonyl)piperazine-1-carboxylate] | 250 nM
10 | CCCNC(=O)N1CCN(C(=O)c2ccc3c(Cl)c4c(nc3c2)CCCC4)CC1 [A049, 4-(9-Chloro-5,6,7,8-tetrahydroacridine-3-carbonyl)-N-propylpiperazine-1-carboxamide] | 6400 nM
11 | CCCOC(=O)N1CCN(C(=O)c2ccc3c(Cl)cc(Nc4ccc(OC)cc4)nc3c2)CC1 [B041, Propyl 4-(4-chloro-2-((4-methoxyphenyl)amino)quinoline-7-carbonyl)piperazine-1-carboxylate] | 1200 nM
12 | C[C@@H]1CN(C(=O)c2ccc3c(Cl)cc(C4CC4)nc3c2)CCN1C(=O)OCCF [B259, 2-Fluoroethyl (R)-4-(4-chloro-2-cyclopropylquinoline-7-carbonyl)-2-methylpiperazine-1-carboxylate] | 2600 nM
13 | CCCOC(=O)N1CCN(C(=O)c2ccc3c(Cl)c4c(nc3c2)CCC(Cc2noc(C)n2)C4)CC1 (stereo not shown) [A089, Propyl 4-(9-chloro-7-((5-methyl-1,2,4-oxadiazol-3-yl)methyl)-5,6,7,8-tetrahydroacridine-3-carbonyl)piperazine-1-carboxylate] | 350 nM
14 | CCCOC(=O)N1CCN(C(=O)c2ccc3c(Cl)c4c(nc3c2)CC(c2nccs2)CC4)CC1 (stereo not shown) [A128, Propyl 4-(9-chloro-6-(thiazol-2-yl)-5,6,7,8-tetrahydroacridine-3-carbonyl)piperazine-1-carboxylate] | 100 nM
15 | CCCOC(=O)N1CCN(C(=O)c2ccc3c(Cl)cc(-c4ccccc4)nc3c2)C[C@@H]1C [B018, Propyl (S)-4-(4-chloro-2-phenylquinoline-7-carbonyl)-2-methylpiperazine-1-carboxylate] | 130 nM
16 | CCCOC(=O)N1CCN(C(=O)c2ccc3c(Cl)cc(-c4ccc(C(=O)NC)cc4)nc3c2)CC1 [B118, Propyl 4-(4-chloro-2-(4-(methylcarbamoyl)phenyl)quinoline-7-carbonyl)piperazine-1-carboxylate] | 250 nM
17 | CCCOC(=O)N1CCN(C(=O)c2ccc3c(Cl)cc(-c4ccc5c(ccn5C)c4)nc3c2)CC1 [B140, Propyl 4-(4-chloro-2-(1-methyl-1H-indo1-5-yl)quinoline-7-carbonyl)piperazine-1-carboxylate] | 350 nM

Row | Compound | IC50
18 | CCCOC(=O)N1CCN(C(=O)c2ccc3c(Cl)cc(-c4ccc(C(C)(C)CNC)cc4)nc3c2)CC1 [B286, Propyl 4-(4-chloro-2-(4-(2-methyl-1-(methylamino)propan-2-yl)phenyl)quinoline-7-carbonyl)piperazine-1-carboxylate] | 25 nM
19 | CCCOC(=O)N1CCN(C(=O)c2ccc3c(Cl)c(C)c(-c4ccc(OC)cc4)nc3c2)[C@@H](C)C1 [B026, Propyl (S)-4-(4-chloro-2-(4-methoxyphenyl)-3-methylquinoline-7-carbonyl)-3-methylpiperazine-1-carboxylate] | 270 nM
20 | C#Cc1cccc(-c2cc(Cl)c3ccc(C(=O)N4CCN(C(=O)OCCC)CC4)cc3n2)c1 [B070, Propyl 4-(4-chloro-2-(3-ethynylphenyl)quinoline-7-carbonyl)piperazine-1-carboxylate] | 2100 nM
21 | CCCOC(=O)N1CCN(C(=O)c2ccc3c(Cl)c(C)c(C)nc3c2)CC1 [C003, Propyl 4-(4-chloro-2,3-dimethylquinoline-7-carbonyl)piperazine-1-carboxylate] | 3000 nM
22 | Cc1cc(C(=O)N2C3CCCC2CN(C(=O)c2ccc4c(Cl)c5c(nc4c2)CCCC5)C3)n[nH]1 [A040, (9-Chloro-5,6,7,8-tetrahydroacridin-3-yl)(9-(5-methyl-1H-pyrazole-3-carbonyl)-3,9-diazabicyclo[3.3.1]nonan-3-yl)methanone] | 10900 nM
23 | CCCOC(=O)N1CCN(C(=O)c2ccc3c(Cl)cc(-c4ccc5[nH]nc(C)c5c4)nc3c2)CC1 [B176, Propyl 4-(4-chloro-2-(3-methyl-1H-indazol-5-yl)quinoline-7-carbonyl)piperazine-1-carboxylate] | 490 nM
24 | CCCOC(=O)N1CCN(C(=O)c2ccc3c(Cl)cc(-c4ccc5c(c4)CNC5=O)nc3c2)CC1 [B232, Propyl 4-(4-chloro-2-(1-oxoisoindolin-5-yl)quinoline-7-carbonyl)piperazine-1-carboxylate] | 150 nM
25 | CCCCC(=O)N1CCN(C(=O)c2ccc3c(Cl)c4c(nc3c2)CCCC4)CC1 [A003, 1-(4-(9-Chloro-5,6,7,8-tetrahydroacridine-3-carbonyl)piperazin-1-yl)pentan-1-one] | 1520 nM
26 | C[C@@H]1CN(C(=O)c2ccc3c(Cl)cc(-c4ccc(C(C)(C)O)cc4)nc3c2)CCN1C(=O)c1cn(C2CC2)nn1 [D006, (R)-(4-Chloro-2-(4-(2-hydroxypropan-2-yl)phenyl)quinolin-7-yl)(4-(1-cyclopropyl-1H-1,2,3-triazole-4-carbonyl)-3-methylpiperazin-1-yl)methanone] | 52 nM
27 | CCCOC(=O)N1CCN(C(=O)c2ccc3c(Cl)c4c(nc3c2)CC(c2ccccn2)CC4)[C@H](C)C1 (stereo partly drawn) [A087, Propyl (3R)-4-(9-chloro-6-(pyridin-2-yl)-5,6,7,8-tetrahydroacridine-3-carbonyl)-3-methylpiperazine-1-carboxylate] | 56 nM
28 | CCCOC(=O)N1CCN(C(=O)c2ccc3c(Cl)cc(-c4ccn(C(=O)OC)c4)nc3c2)CC1 [B228, Propyl 4-(4-chloro-2-(1-(methoxycarbonyl)-1H-pyrrol-3-yl)quinoline-7-carbonyl)piperazine-1-carboxylate] | 300 nM
29 | C#CCC1CCc2c(nc3cc(C(=O)N4CCN(C(=O)OCCC)[C@H](C)C4)ccc3c2Cl)C1 (stereo partly drawn) [A142, Propyl (2R)-4-(9-chloro-6-(prop-2-yn-1-yl)-5,6,7,8-tetrahydroacridine-3-carbonyl)-2-methylpiperazine-1-carboxylate] | 420 nM
30 | CCCOC(=O)N1CCN(C(=O)c2ccc3c(Cl)cc(-c4ccc(OC)cc4)nc3c2)[C@@H](C)C1 [B047, Propyl (S)-4-(4-chloro-2-(4-methoxyphenyl)quinoline-7-carbonyl)-3-methylpiperazine-1-carboxylate] | 230 nM
31 | CCCCOC(=O)N1CCN(C(=O)c2ccc3c(Cl)c4c(nc3c2)CCCC4)CC1 [A038, Butyl 4-(9-chloro-5,6,7,8-tetrahydroacridine-3-carbonyl)piperazine-1-carboxylate] | 420 nM
32 | CCCOC(=O)N1CCN(C(=O)c2ccc3c(Cl)cc(-c4ccc(C)cc4)nc3c2)C[C@H]1C [B052, Propyl (R)-4-(4-chloro-2-(p-tolyl)quinoline-7-carbonyl)-2-methylpiperazine-1-carboxylate] | 770 nM
33 | CCCOC(=O)N1CCN(C(=O)c2ccc3c(Cl)cc(-c4cnn(C(F)F)c4)nc3c2)CC1 [B230, Propyl 4-(4-chloro-2-(1-(difluoromethyl)-1H-pyrazol-4-yl)quinoline-7-carbonyl)piperazine-1-carboxylate] | 700 nM
34 | Cn1cc(-c2cc(Cl)c3ccc(C(=O)N4CCN(C(=O)OCCF)CC4)cc3n2)cn1 [B261, 2-Fluoroethyl 4-(4-chloro-2-(1-methyl-1H-pyrazol-4-yl)quinoline-7-carbonyl)piperazine-1-carboxylate] | 2700 nM
